# Experimental data: patent US8466291B2, “1,5-dideoxy-1,5-imino-D-glucitol compounds” (Academia Sinica, priority 2008, dated 2013)
# Tests used:
# [1] = target: Bacteroids fragilis O-GlcNAcase (Bacteroides fragilis, UniProt Q5L8V6); experiment: Michaelis-Menten/Lineweaver-Burk kinetic inhibition of O-GlcNAcase with 4MU-NAG substrate; assay type: biochemical
# Description: Bacteroids fragilis O-GlcNAcase, which is highly homologous to human O-GlcNAcase, was prepared as follows. Based on the genome sequence of B. fragilis (NCTC 9343) as disclosed in GenBank accession no. CR626927 (Oct. 23, 2008), a DNA fragment encoding the B. fragilis O-GlcNAcse was amplified via polymerase chain reaction (PCR), using the primers of: 5′-[…]-3′ (SEQ ID NO:1) (forward primer) and 5′-[…]-3′ (SEQ ID NO:2) (reverse primer). The PCR product was cloned into pGEM-T Easy vector (Promega) via cloning sites Nde1 and Xho1 and then subcloned into pET21b vector to produce expression plasmid pOGA, which encodes a fusion protein including O-GlcNAcase and a His6 tag at the C-terminus
# Plasmid pOGA was transformed into E. coli BL21 (DE3) cells and a positive transformant was cultured in Luria-Bertani (LB) medium with ampicillin (100 μg/mL) overnight. The E. coli culture, transferred to fresh LB medium, was incubated at 37° C. and, when A600 of the culture reached 0.6, isopropyl-β-D-thiogalactopyranoside (final conc: 250 μM) was added to induce expression of O-GlcNAcse. The induced cells were further cultured at 16° C. overnight, harvested, and disrupted to produce a cell lysate. Upon centrifugation, the supernatant thus obtained was loaded onto a nickel-affinity column. After elution, a fraction containing O-GlcNAcse was collected and the enzyme contained therein was further purified by gel filtration using a Superdex 6 column. See Dennis et al., Nat Struct Mol Biol 2006, 13: 365-71. The purified protein was concentrated using a 10 kDa-cutoff concentrator and dialyzed against 20 mM HEPES (pH 7.5).
# The reaction conditions for each enzyme are shown below:
# O-GlcNAcase: reaction mixture (0.5 nM O-GlcNAcase (200 μL) in 50 mM citric acid, 100 mM NaCl, 0.1% BSA, 0.05-1.5 mM substrate, pH 4.25) was incubated at 30° C. for 25 minutes. The enzyme activity at different time points was determined by measuring the levels of the fluorescent signals (excitation wavelength: 360 nm; emission wavelength: 460 nm) released from 4-methylumbelliferone, a product of the enzyme reaction.
# In these reactions, the substrate concentrations were three to five fold of the concentration used for determining KM (absent compounds) and the ratio between the enzyme and the compound was 0.1-0.5 nM to 0.3 nM-200 uM. The data thus obtained were analyzed by the Lineweaver-Burk plot. The K1 values were determined by the double reciprocal plot (1/V vs. 1/[S]). More specifically, the Km values for each enzyme in the presence of one of the test compounds first determined and these values were further plotted in view of the concentrations of the compound. K1 was determined by calculating the negative value of the resulting x-intercept. The selectivity of each compound was calculated by the formula: K1 O-GlcNAcase/K1 Hex B.
# Human O-GlcNAcase = target: T1, Human O-GlcNAcase (Homo sapiens, UniProt O60502); experiment: Inhibition of human O-GlcNAcase; assay type: biochemical; details: Table 2
# T1 construct: made in house
# T1 sequence (O60502 1-916): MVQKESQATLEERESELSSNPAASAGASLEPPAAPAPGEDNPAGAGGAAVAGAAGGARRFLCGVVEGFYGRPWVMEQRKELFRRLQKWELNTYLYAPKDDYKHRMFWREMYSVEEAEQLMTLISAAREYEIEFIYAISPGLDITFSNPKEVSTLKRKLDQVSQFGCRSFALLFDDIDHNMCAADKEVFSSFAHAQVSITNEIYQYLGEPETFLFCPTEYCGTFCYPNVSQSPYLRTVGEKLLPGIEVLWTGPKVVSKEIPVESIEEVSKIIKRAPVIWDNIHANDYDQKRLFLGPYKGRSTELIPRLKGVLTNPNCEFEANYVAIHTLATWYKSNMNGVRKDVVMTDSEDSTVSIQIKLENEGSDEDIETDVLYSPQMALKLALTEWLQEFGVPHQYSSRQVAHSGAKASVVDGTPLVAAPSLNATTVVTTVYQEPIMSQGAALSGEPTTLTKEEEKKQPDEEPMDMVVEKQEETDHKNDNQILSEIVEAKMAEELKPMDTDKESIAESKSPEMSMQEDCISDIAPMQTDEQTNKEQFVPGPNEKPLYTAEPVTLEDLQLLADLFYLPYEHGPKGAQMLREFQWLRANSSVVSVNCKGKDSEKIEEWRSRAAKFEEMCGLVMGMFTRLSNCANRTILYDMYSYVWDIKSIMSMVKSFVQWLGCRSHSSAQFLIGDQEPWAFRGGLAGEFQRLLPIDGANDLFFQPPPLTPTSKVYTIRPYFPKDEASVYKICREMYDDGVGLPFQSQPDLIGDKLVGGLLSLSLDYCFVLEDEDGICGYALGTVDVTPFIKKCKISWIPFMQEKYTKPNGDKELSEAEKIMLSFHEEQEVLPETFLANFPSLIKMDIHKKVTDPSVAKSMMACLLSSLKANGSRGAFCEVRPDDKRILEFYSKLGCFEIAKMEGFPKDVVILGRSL
# Description: Human O-GlcNAcase was also prepared and tested according to the procedures described in Gao et al., J. Biol. Chem. 2001, 276, 9838-9845 and Macauley et al., J. Am. Chem. Soc. 2005, 127, 17202-17203.
# Bacteroids fragilis O-GlcNAcase, sequence (Q5L8V6 entry or part of it): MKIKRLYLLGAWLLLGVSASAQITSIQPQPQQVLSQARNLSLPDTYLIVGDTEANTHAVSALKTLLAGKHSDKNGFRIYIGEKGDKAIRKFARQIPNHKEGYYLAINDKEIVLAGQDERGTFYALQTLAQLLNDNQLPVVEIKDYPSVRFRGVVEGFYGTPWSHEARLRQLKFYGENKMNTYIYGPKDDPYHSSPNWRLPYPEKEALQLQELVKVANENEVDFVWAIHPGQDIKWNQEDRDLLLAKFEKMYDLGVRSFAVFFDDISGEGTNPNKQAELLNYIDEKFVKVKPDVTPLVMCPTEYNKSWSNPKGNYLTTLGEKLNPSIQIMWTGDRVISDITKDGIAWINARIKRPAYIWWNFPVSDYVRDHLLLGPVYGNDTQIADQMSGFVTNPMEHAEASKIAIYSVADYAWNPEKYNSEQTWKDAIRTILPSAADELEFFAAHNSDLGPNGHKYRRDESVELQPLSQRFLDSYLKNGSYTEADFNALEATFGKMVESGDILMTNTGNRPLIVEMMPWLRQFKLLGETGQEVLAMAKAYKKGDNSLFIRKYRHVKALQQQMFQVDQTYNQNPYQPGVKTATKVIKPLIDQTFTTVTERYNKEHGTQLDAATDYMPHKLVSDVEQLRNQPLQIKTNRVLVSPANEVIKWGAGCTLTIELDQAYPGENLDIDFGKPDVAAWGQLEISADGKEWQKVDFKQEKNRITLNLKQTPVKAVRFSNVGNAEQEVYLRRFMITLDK
smiles,measurement,setting,value
CC(=O)NC1CN(CCCCCCCNC(=O)CCCCC2SCC3NC(=O)NC32)C(CO)C(O)C1O (stereo not shown) [Compound 5],Ki,[1],69.6 ± 1.77 µM
same,Selectivity (KI O-GlcNAcase/KI HEX),"[1]; Bacteroids fragilis O-GlcNAcase over human HEX B, Table 1","2,600"
same,Selectivity (KI O-GlcNAcase/KI HEX),Human O-GlcNAcase; Human O-GlcNAcase over human HEX B,"5,400"
same,Ki,Human O-GlcNAcase; Human O-GlcNAcase,145 ± 1.77 µM
